In ChEMBL document CHEMBL6177948, “Discovery of potential Leonurine-based therapeutic lead MJ210 attenuates Parkinson's disease pathogenesis via NF-κB and MAPK pathways: Mechanistic insights from in vitro and in vivo rotenone models” (Eur J Med Chem, 2025):
Calls of active or inactive are those of the source. No cut-off for these calls is given here.

Tests used:
SH-SY5Y [1] = experiment: Neuroprotective activity against rotenone-induced cytotoxicity in human SH-SY5Y cells assessed as increase in green fluorescence at 5 uM by Calcein-AM and PI staining based fluorescence microscopy analysis; format: functional, cell-based
SH-SY5Y [2] = experiment: Anti-apoptotic activity in rotenone-induced human SH-SY5Y cells assessed as reduction in Bax expression by Western blotting analysis; format: functional, cell-based
SH-SY5Y [3] = experiment: Anti-inflammatory activity against rotenone-induced human SH-SY5Y cells assessed as reduction in IL-1beta mRNA expression level by RT-qPCR analysis; format: functional, cell-based
SH-SY5Y [4] = experiment: Anti-inflammatory activity against rotenone-induced human SH-SY5Y cells assessed as reduction in IL-6 mRNA expression level by RT-qPCR analysis; format: functional, cell-based
SH-SY5Y [5] = experiment: Inhibition of MAPK signaling pathway in rotenone-induced human SH-SY5Y cells assessed as reduction in ERK1/2 phosphorylation level by ELISA; format: cell-based
SH-SY5Y [6] = experiment: Inhibition of MAPK signaling pathway in rotenone-induced human SH-SY5Y cells assessed as reduction in JNK phosphorylation level by ELISA; format: cell-based
[7] = Stability in human serum assessed as compound remaining measured after 96 hrs by RP-HPLC analysis relative to control; format: ADME, cell-free; conditions: read-out: Stability
Rattus norvegicus [8] = experiment: Improvement of motor dysfunction in rotenone-induced male Wistar rat model assessed as reduction in number of falls at 5 mg/kg, ip pretreated with compound every alternative days followed by rotenone addition and measured after 42 days by rotarod test; format: functional, organism-based; conditions: time 42.0 day
Rattus norvegicus [9] = experiment: Anti-parkinson activity in rotenone-induced male Wistar rat model assessed as improvement in t-total metrics at 5 mg/kg, ip pretreated with compound every alternative days followed by rotenone addition and measured after 42 days by pole test; format: functional, organism-based; conditions: time 42.0 day
Rattus norvegicus [10] = experiment: (§1) Anti-parkinson activity in rotenone-induced male Wistar rat model assessed as reduction in climbing time at 5 mg/kg, ip pretreated with compound every alternative days followed by rotenone addition and measured after 42 days by pole test; format: functional, organism-based; conditions: time 42.0 day
Rattus norvegicus [11] = experiment: as §1, with “rotenone-induced behavioral impairment by measuring” for “climbing”, “time in central zone” for “time”, “open field” for “pole”; format: functional, organism-based; conditions: time 42.0 day
Rattus norvegicus [12] = experiment: Anti-parkinson activity in rotenone-induced neurodegeneration in male Wistar rat model assessed as minimal neuronal loss in substantia nigra at 5 mg/kg, ip pretreated with compound every alternative days followed by rotenone addition and measured after 42 days by H and E staining based analysis; format: functional, organism-based; conditions: time 42.0 day
Rattus norvegicus [13] = experiment: Anti-parkinson activity in rotenone-induced neurodegeneration in male Wistar rat model assessed as reduced edema in striatum at 5 mg/kg, ip pretreated with compound every alternative days followed by rotenone addition and measured after 42 days by H and E staining based analysis; format: functional, organism-based; conditions: time 42.0 day
Rattus norvegicus [14] = experiment: Anti-parkinson activity in rotenone-induced neurodegeneration in male Wistar rat model assessed as decrease count of pyknotic cells in striatum at 5 mg/kg, ip pretreated with compound every alternative days followed by rotenone addition and measured after 42 days by H and E staining based analysis; format: functional, organism-based; conditions: time 42.0 day
Rattus norvegicus [15] = experiment: Anti-parkinson activity in rotenone-induced neurodegeneration in male Wistar rat model assessed as decrease neuronal damage in cortex at 5 mg/kg, ip pretreated with compound every alternative days followed by rotenone addition and measured after 42 days by Nissl staining based analysis; format: functional, organism-based; conditions: time 42.0 day
Rattus norvegicus [16] = experiment: Anti-parkinson activity in rotenone-induced neurodegeneration in male Wistar rat model assessed as reduction in pyknotic neurons in cortex at 5 mg/kg, ip pretreated with compound every alternative days followed by rotenone addition and measured after 42 days by Nissl staining based analysis; format: functional, organism-based; conditions: time 42.0 day
Rattus norvegicus [17] = experiment: In vivo inhibition of MAPK signaling pathway in rotenone-induced parkinson disease male Wistar rat model assessed as reduction in JNK phosphorylation level in striatum at 5 mg/kg, ip pretreated with compound every alternative days followed by rotenone addition and measured after 42 days by Western blotting analysis; format: functional, organism-based; conditions: time 42.0 day
Rattus norvegicus [18] = experiment: Anti-inflammatory activity in rotenone-induced male Wistar rat model assessed as reduction in COX2 expression level in striatum at 5 mg/kg, ip pretreated with compound every alternative days followed by rotenone addition and measured after 42 days by ELISA; format: functional, organism-based; conditions: time 42.0 day
Rattus norvegicus [19] = experiment: Anti-inflammatory activity in rotenone-induced male Wistar rat model assessed as reduction in phosphorylated NF-kappaB P65 protein expression level in striatum at 5 mg/kg, ip pretreated with compound every alternative days followed by rotenone addition and measured after 42 days by ELISA; format: functional, organism-based; conditions: time 42.0 day
Rattus norvegicus [20] = experiment: Anti-inflammatory activity in rotenone-induced male Wistar rat model assessed as reduction in phosphorylated NF-kappaB P65 protein expression level in substantia nigra at 5 mg/kg, ip pretreated with compound every alternative days followed by rotenone addition and measured after 42 days by ELISA; format: functional, organism-based; conditions: time 42.0 day
[21] = Toxicity in male Wistar rat assessed as change in cellular structure of kidney at 1 to 10 mg/kg by H and E staining based analysis; format: organism-based; conditions: in vivo, dose 1-10 mg/kg
[22] = Half life in male Wistar rat at 50 mg/kg, ip measured after 24 hrs; format: ADME, organism-based; conditions: in vivo

COc1cc(CCC(=O)N2CCCCC2)cc(OC)c1OC(=O)c1ccccn1
Activity (SH-SY5Y [1]): Active | Activity (SH-SY5Y [2]): Active | Activity (SH-SY5Y [3]): Active | Activity (SH-SY5Y [4]): Active | inhibition (SH-SY5Y [5]): Active | inhibition (SH-SY5Y [6]): Active | remaining at 96 h [7]: 86% | Activity (Rattus norvegicus [8]): Active | Activity (Rattus norvegicus [9]): Active | Activity (Rattus norvegicus [10]): Active | Activity (Rattus norvegicus [11]): Active | Activity (Rattus norvegicus [12]): Active | Activity (Rattus norvegicus [13]): Active | Activity (Rattus norvegicus [14]): Active | Activity (Rattus norvegicus [15]): Active | Activity (Rattus norvegicus [16]): Active | inhibition (Rattus norvegicus [17]): Active | Activity (Rattus norvegicus [18]): Active | Activity (Rattus norvegicus [19]): Active | Activity (Rattus norvegicus [20]): Active | Activity [21]: Non-toxic | half-life [22]: 510 min
